Here are results for two compounds from the NIST ThermoML archive (doi:10.1016/j.jct.2005.02.005).

For orientation: refractive index means the speed of light in vacuum divided by its phase velocity in the sample. What is called mass density is the mass of a sample divided by its volume.

± gives the expanded uncertainty stated by the source.

Data set [1] in a line: refractive index (Na D-line) (dimensionless). To be noted: 293.15 K; 101.33 kPa; Liquid; Standard Abbe refractometry.
The conditions of data set [2]: Liquid; for mass density: 293.15 K, 101.33 kPa.

On to `CCOC(=O)c1ccccc1C(=O)OCC` [diethyl phthalate], for which, in data set [1], the refractive index stood at 1.5003 ± 0.0008. In data set [2] (Vibrating tube method), the mass density is 1117.2 ± 0.6 kg/m3. Also, the Normal boiling temperature in data set [2] worked out at 298.02 ± 0.1 °C.
On to `CCC(=O)O` [propanoic acid], for which the refractive index in data set [1] worked out at 1.3811 ± 0.0008. In data set [2], the mass density came to 992.7 ± 0.5 kg/m3 and the Normal boiling temperature worked out at 141.0 ± 0.1 °C.
